# In US10822338B2, “Substituted aminoquinazoline compounds as A2A antagonist” (Merck Sharp & Dohme Corp., priority 2015, dated 2020):
# Biological target: human A2A receptor (Homo sapiens (Human), UniProt P29274)
# Assay: A2A competition binding assay using Scintillation Proximity technology
# Details: 0.25 μg of membranes from HEK293 cells expressing the human A2a receptor per well; 0.5 nM tritiated radioligand; Cheng-Prusoff
# Procedure: Binding affinities of compounds of the invention for the human A2A receptor were determined in a competition binding assay using Scintillation Proximity technology. Thus, 1^μg (^ denotes 1 μg of membrane/well), or preferably 0.25 μg of membranes from HEK293 cells expressing the human A2a receptor were incubated with a compound of the invention at concentrations ranging from 3000 nM to 0.15 nM in a reaction mixture containing also 0.5 nM of a tritiated form of 5-amino-7-[2-phenethyl]-2-(furan-2-yl)-7H-pyrazolo[4,3-e][1,2,4]triazolo[1,5-c]pyrimidine (the tritiated compound) and 25 μg of wheat germ agglutin-coated yttrium silicate SPA beads for one hour at room temperature with agitation. The beads were then allowed to settle to the bottom of the wells for 1 hr, after which the membrane-associated radioactivity was determined by scintillation counting in a TopCount microplate reader. Ki values were determined using the Cheng-Prusoff equation.
# HEK293 cells expressing the human, rat, dog or monkey adenosine 2a receptor (Purchased from Perkin-Elmer # RBHA2AM400UA).
# The Tritiated compound was prepared in-house by MRL Radiochemistry according to published methods.
# Wheat germ agglutinin-coated yttrium silicate SPA beads (GE Healthcare #RPNQ0023). Dilute to 25 mg/mL in assay buffer.
# Assay Buffer was prepared in house: Dulbecco's calcium and magnesium free phosphate buffered saline+10 mM MgCl2
# Adenosine deaminase from calf intestine, 10 mg/2 mL (Roche #10 102 105 001).
# A2A antagonist standard (9-chloro-1-(2-furanyl)-[1,2,4]triazolo[1,5-c]quinazolin-5-amine from Tocris Bioscience)
# Make eight 1:3 serial dilutions in 100% DMSO from a 3 mM compound stock
# Transfer 50 nL of compound into a 384-well OptiPlate (Perkin Elmer).
# Typically, final concentrations of compound used in the assay ranged from 3000 nM to 0.152 nM.
# Dilute a solution of the Tritiated compound to 1.25 nM in assay buffer. This a 2.5× solution. The final concentration in the assay is 0.5 nM. Calculate the concentration by counting two 5 μL aliquots.
# Use *1 ug or preferrably 0.25 ug of membrane/well. Dilute membranes to 9.7 μg/ml in assay buffer. Treat with 20 ug/ml adenosine deaminase (ADA) for 15 minutes at room temperature to degrade endogenous adenosine.
# Use 25 μg/well wheat germ agglutinin-coated yttrium silicate SPA beads.
# Mix ADA-treated membranes and SPA beads together for 30 min prior to assay.
# To the Perkin-Elmer Optiplate-384 containing the compound titration add 20 μL of 2.5× solution of the Tritiated compound and 30 μL of the membrane-bead mixture. Incubate for one hour at room temperature with agitation.
# Include total binding (assay buffer+1% DMSO) and non-specific binding (CGS15943, 1 μM) wells.
# Allow the beads to settle for one hour.
# A curve fitting program (i.e., Prism, Activity Base, Chemcart) is used to determine the EC50. The Ki value is calculated using the Cheng-Prusoff equation. Ki=EC50/(1+(radioligand concentration/Kd)) Counting and Calculations
# Counting and calculations were performed as described within the “A2A Activity Binding of Compounds of the Invention” section. Using the foregoing methods, the following results were obtained using compounds of the invention described herein. Each example compound tested is reported in the following format: Example number: A2A Ki (nM) selectivity.
# Chain of human A2A receptor (P29274 whole entry): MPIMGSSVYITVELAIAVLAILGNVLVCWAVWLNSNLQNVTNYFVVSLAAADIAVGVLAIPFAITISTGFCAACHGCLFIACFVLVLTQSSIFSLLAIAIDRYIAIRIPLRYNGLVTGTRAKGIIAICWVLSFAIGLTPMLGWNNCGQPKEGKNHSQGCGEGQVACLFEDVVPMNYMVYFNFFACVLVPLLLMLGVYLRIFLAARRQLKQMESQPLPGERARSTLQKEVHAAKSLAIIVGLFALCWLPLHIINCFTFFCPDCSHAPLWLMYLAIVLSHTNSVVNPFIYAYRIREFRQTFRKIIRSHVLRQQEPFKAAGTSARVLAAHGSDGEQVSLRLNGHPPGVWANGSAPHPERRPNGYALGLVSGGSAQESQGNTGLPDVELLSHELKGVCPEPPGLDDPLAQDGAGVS
row,Ki,SMILES
1,2 nM,"COc1cccc2c1nc(N)n1nc([C@@H]3CCCN(Cc4cc(F)cc(C(F)(F)F)c4)C3)nc21 [Example 46, 2-((3R)-1-[3-fluoro-5-(trifluoromethyl)benzyl)piperidin-3-yl)-7-methoxy[1,2,4]triazolo [1,5-c]quinazolin-5-amine]"
2,0.8 nM,"COc1cccc2c1nc(N)n1nc([C@@H]3CCCN(CC(F)(F)F)C3)nc21 [Example 23, (R)-7-methoxy-2-(1-(2,2,2-trifluoroethyl)piperidin-3-yl)-[1,2,4]triazolo[1,5-c]quinazolin-5-amine]"
3,0.4 nM,"COc1cccc2c1nc(N)n1nc(C3CCCC(CCC(F)(F)F)C3)nc21 (single isomer, unassigned) [Example 29C, 7-methoxy-2-(3-(3,3,3-trifluoropropyl)cyclohexyl)-[1,2,4]triazolo[1,5-c]quinazolin-5-amine]"
4,93 nM,"COc1cccc2c1nc(N)n1nc([C@@H]3CCCNC3)nc21 [Example 13, (R)-7-methoxy-2-(piperidin-3-yl)-[1,2,4]triazolo[1,5-c]quinazolin-5-amine]"
5,0.3 nM,"COc1cccc2c1nc(N)n1nc(C3CC4CCC3N(CC(F)(F)F)C4)nc21 (single isomer, unassigned) [Example 35C, 7-methoxy-2-(2-(2,2,2-trifluoroethyl)-2-azabicyclo[2.2.2]octan-6-yl)-[1,2,4]triazolo[1,5-c]quinazolin-5-amine]"
6,5 nM,"COc1cccc2c1nc(N)n1nc([C@@H]3CCCN(CC4CCOCC4)C3)nc21 [Example 44, (R)-7-methoxy-2-(1-((tetrahydro-2H-pyran-4-yl)methyl)piperidin-3-yl)-[1,2,4]triazolo[1,5-c]quinazolin-5-amine]"
7,3.1 nM,"COCCN1CCC[C@@H](c2nc3c4cccc(OC)c4nc(N)n3n2)C1 [Example 6, (R)-7-methoxy-2-(1-(2-methoxyethyl)piperidin-3-yl)-[1,2,4]triazolo[1,5-c]quinazolin-5-amine]"
8,2.4 nM,"COc1cccc2c1nc(N)n1nc(C3CCC(F)(F)CN3)nc21 (single isomer, unassigned) [Example 58A, 2-(5,5-difluoropiperidin-2-yl)-7-methoxy-[1,2,4]triazolo[1,5-c]quinazolin-5-amine]"
9,0.6 nM,"COc1cccc2c1nc(N)n1nc([C@@H]3CCCN(CC(C)(C)F)C3)nc21 [Example 43, (R)-2-(1-(2-fluoro-2-methylpropyl)piperidin-3-yl)-7-methoxy-[1,2,4]triazolo[1,5-c]triazolo[1,5-c]quinazolin-5-amine]"
10,1.1 nM,"COc1cccc2c1nc(N)n1nc([C@@H]3CCCN(C(=O)C(C)(C)F)C3)nc21 [Example 42, (R)-1-(3-(5-amino-7-methoxy-[1,2,4]triazolo[1,5-c]quinazolin-2-yl)piperidin-1-yl)-2-fluoro-2-methylpropan-1-one]"
11,0.4 nM,"COc1cccc2c1nc(N)n1nc([C@@H]3CCCN(CCC(F)(F)C(F)(F)F)C3)nc21 [Example 11, (R)-7-methoxy-2-(1-(3,3,4,4,4-pentafluorobutyl)piperidin-3-yl)-[1,2,4]triazolo[1,5-c]quinazolin-5-amine]"

# Same assay, conditions: values marked ^: 1 μg of membrane/well (HEK293 cells expressing the human A2a receptor); 0.5 nM tritiated radioligand; Cheng-Prusoff
row,Ki,SMILES
1,29 nM,"CCCCN1CCC[C@@H](c2nc3c4cccc(OC)c4nc(N)n3n2)C1 [Example 7, (R)-2-(1-butylpiperidin-3-yl)-7-methoxy-[1,2,4]triazolo[1,5-c]quinazolin-5-amine]"
2,0.8 nM,"COc1cccc2c1nc(N)n1nc([C@@H]3CCCN(c4ncc(C)s4)C3)nc21 [Example 22, (R)-7-methoxy-2-(1-(5-methylthiazol-2-yl)piperidin-3-yl)-[1,2,4]triazolo[1,5-c]quinazolin-5-amine]"
3,20 nM,"C#CC(C)(C)N1CCC[C@@H](c2nc3c4cccc(OC)c4nc(N)n3n2)C1 [Example 9, (R)-7-methoxy-2-(1-(2-methylbut-3-yn-2-yl)piperidin-3-yl)-[1,2,4]triazolo[1,5-c]quinazolin-5-amine]"
4,3.2 nM,"COc1cccc2c1nc(N)n1nc([C@@H]3CCCN(c4ncns4)C3)nc21 [Example 21, (R)-2-(1-(1,2,4-thiadiazol-5-yl)piperidin-3-yl)-7-methoxy-[1,2,4]triazolo[1,5-c]quinazolin-5-amine]"
5,0.9 nM,"COc1cccc2c1nc(N)n1nc(C3CCCN(c4ccccc4)C3)nc21 (single isomer, unassigned) [Example 50A, 7-methoxy-2-(1-phenylpiperidin-3-yl)-[1,2,4]triazolo[1,5-c]quinazolin-5-amine]"
6,34 nM,"CCN1CCC[C@@H](c2nc3c4cccc(OC)c4nc(N)n3n2)C1 [Example 5, (R)-2-(1-ethylpiperidin-3-yl)-7-methoxy-[1,2,4]triazolo[1,5-c]quinazolin-5-amine]"
7,45 nM,"COc1cccc2c1nc(N)n1nc([C@@H]3CCCN(CC(C)C)C3)nc21 [Example 8, (R)-2-(1-isobutylpiperidin-3-yl)-7-methoxy-[1,2,4]triazolo[1,5-c]quinazolin-5-amine]"
